{"source": "ChEMBL document CHEMBL4334442", "about": "“Effects of Acetylshikonin on the Infection and Replication of Coxsackievirus A16 in Vitro and in Vivo” (J Nat Prod, 2019)", "key": {"[1]": {"system": "Coxsackievirus A16", "test": "Antiviral activity against Coxsackievirus A16 TA271 infected in RD cells assessed as effect on viral load at replication stage at 0.08 uM/L preincubated for 1 hr followed by replacement of medium containing compound for 5 hrs and measured after 48 hrs post infection by RT-PCR analysis", "format": "functional, cell-based"}, "[2]": {"system": "Coxsackievirus A16", "test": "(§1) Antiviral activity against Coxsackievirus A16 TA271 infected in RD cells at release stage assessed as cell fragmentation at 0.08 uM/L preincubated with cells for 1 hr followed by replacement of fresh medium containing compounds after 5 hrs post infection and further incubated for 16 hrs post infection by inverted microscopic analysis", "format": "functional, cell-based"}, "[3]": {"system": "Coxsackievirus A16", "test": "as §1, with “appearance of rounded cells” for “cell fragmentation”", "format": "functional, cell-based"}, "[4]": {"system": "Coxsackievirus A16", "test": "Antiviral activity against Coxsackievirus A16 TA271 infected in ICR mouse assessed as reduction in viral load in hind limb muscle at 0.08 uM/L preincubated with viral suspension for 2 hrs followed by intramuscular administration after 3 to 5 days post infection by RT-PCR analysis", "format": "functional"}, "[5]": {"system": "Coxsackievirus A16", "test": "Antiviral activity against Coxsackievirus A16 TA271 infected in ICR mouse assessed as reduction in viral load in spinal muscle at 2 mg/kg, im after 3 to 5 days post infection by RT-PCR analysis", "format": "functional, organism-based"}, "[6]": {"system": "Coxsackievirus A16", "test": "Antiviral activity against Coxsackievirus A16 LW2 infected in RD cells assessed as reduction in viral genome copies at 0.08 uM/L preincubated with viral suspension for 2 hrs followed by cell addition and measured at 24 hrs post infection by RT-PCR analysis", "format": "functional, cell-based"}, "[7]": {"test": "Cytotoxicity against human RD cells assessed as cell survival at <5 uM after 24 hrs by CCK8 assay relative to control", "format": "cell-based", "conditions": "read-out: Activity"}, "[8]": {"system": "Coxsackievirus A16", "test": "Antiviral activity against Coxsackievirus A16 TA271 infected in ICR mouse assessed as mouse survival at 2 mg/kg, im measured on day 6 post infection relative to control", "format": "functional", "conditions": "Enterovirus A, 144 h"}, "[9]": {"system": "Coxsackievirus A16", "test": "Antiviral activity against Coxsackievirus A16 TA271 infected in ICR mouse assessed as reduction in muscle fiber breakage in spinal muscle at 2 mg/kg, im after 5 days post infection by H and E staining based histopathological analysis", "format": "functional, organism-based"}, "[10]": {"system": "Coxsackievirus A16", "test": "Antiviral activity against Coxsackievirus A16 TA271 infected in ICR mouse assessed as mild alveolar wall thickening in hind limb muscle at 2 mg/kg, im after 5 days post infection by H and E staining based histopathological analysis", "format": "functional, organism-based"}}, "note": "Active and inactive are the calls of the source. The rule behind the calls is not given here.", "data": [{"smiles": "CC(=O)OC(CC=C(C)C)C1=CC(=O)c2c(O)ccc(O)c2C1=O", "note": "(stereo not given)", "values": [{"measurement": "Activity", "setting": "[1]", "result": "inactive"}, {"measurement": "Activity", "setting": "[2]", "result": "inactive"}, {"measurement": "Activity", "setting": "[3]", "result": "inactive"}, {"measurement": "Activity", "setting": "[4]", "result": "Active"}, {"measurement": "Activity", "setting": "[5]", "result": "Active"}, {"measurement": "Activity", "setting": "[6]", "result": "Active"}, {"measurement": "viability at 24 h", "setting": "[7]", "result": "> 90", "unit": "%"}, {"measurement": "survival at 2 mg/kg", "setting": "[8]", "result": 50, "unit": "%"}, {"measurement": "Activity", "setting": "[9]", "result": "Active"}, {"measurement": "Activity", "setting": "[10]", "result": "Active"}]}]}
